No end group written: not given here.
How the values were obtained:
[1] = system: NOD mice; conditions: subcutaneous administration; cited from earlier work
[2] = system: BB-DP rats; assay: Diabetes incidence and onset after neonatal oral DiaPep277 with conventional or HC diet; assay type: in vivo, rat
Method: Experimental set-up: Group-housed BB-DP rats (breeding colony, Groningen, the Netherlands) were orally inoculated once per day with either placebo (aqua dist.) or Diapep277 at days 4, 5, 6 and 7 of life (black box in FIG. 1). Animals were treated in compliance with the principles of laboratory care (NIH publication no. 85-23, revised 1985) and the Dutch law on experimental animal care. Inoculation was done via a silicon-tube swallowed by the neonate and fluid was inoculated directly into the stomach. DiaPep277 was supplied by Peptor Ltd., Rehovot, Israel. It is an analog of the native 437-460 sequence of human hsp60, in which the existing cystein residues at positions 442 and 447 were replaced by valine, for better chemical stabilization. Per inoculation 300 μg/rat of Diapep277 in a volume of 300 μl was administered. At the age of 21 days (gray box in FIG. 1) rats were weaned either on a conventional, cereal-based diet (Hope Farms, rodent diet no. Rmh-B2181, Woerden, Netherlands) or on HC-diet, a modification of the AIN-93G diet containing 20% hydrolyzed casein (Pancase S; Redstar Bioproducts, Tara, Canada) as the source of aminoacids, 53% corn starch, 12% sucrose, 5% corn oil, 5% cellulose-type fiber (Solka-Floc; Teklad, Madison, Wis.) (Visser J. et al., 2003, Metabolism 52, 333-337, Scott F W et al., 1997, Diabetes 46, 589-598). In this study both sexes were used. In our colony 80% to 90% of the BB-DP rats spontaneously develop diabetes before the age of 130 days, with no gender differences. Body weights were measured three times per week. […] The degree of islet infiltration was measured using a Zeiss microscope and was rated as previously described (Visser J. et al., 2003, Metabolism 52, 333-337) with the addition of score 5 which is developed in our lab, to control for completely destroyed islets in severe insulitis. Per pancreas section, an average histological insulitis score was calculated by adding up the score of each islet and dividing it by the total number of islets counted. […]

[3] = system: spleen-derived lymphocytes; conditions: splenocytes from DiaPep277-treated rats; stimulation 5 or 25 microgram/ml; planned second study
Method: In this study, the preventive dose or control (PBS) is administered on days 4-14 to large groups of rats (30 per treatment arm), and followed up for signs of diabetes, as above. In addition, five rats of each group are sacrificed at 2 weeks, 1, 2, 3, 4 and 5 months of age, and at each time point the spleen is removed to determine the cytokine profile. Determination of the cytokine profile is performed by subjecting the spleen-derived lymphocytes to the following stimuli: None; Concanavalin A (1 microgram/ml); DiaPep277 (5 microgram/ml); DiaPep277 (25 microgram/ml).

| Sequence | development of diabetes (in words) [1] | diabetes incidence ([2]; BB-DP rats, oral 300 μg/rat/day at days 4-7 of life, diet from weaning (day 21), followed to 140 days) | improved chance of not developing diabetes ([2]; all animals receiving DiaPep277, endpoint analysis, χ^2) | protection against diabetes (in words) ([2]; neonatal oral administration alone, conventional diet) | cytokine response of splenocytes on DiaPep277 stimulation (in words) [3] |
| --- | --- | --- | --- | --- | --- |
| VLGGGCALLRCIPALDSLTPANED (cysteine pairing not given here) [p277, residues 437-460 of human Hsp60] | prevented the development of diabetes |  |  |  |  |
| VLGGGVALLRVIPALDSLTPANED [DiaPep277] |  | 69% | 2.2 fold | did not lead to significant protection | focused Th2/Treg response |

From US8828922B2, “HSP therapy in conjunction with a low antigenicity diet” (Andromeda Biotech Ltd., priority 2004, dated 2014)
